Measurements from patent publication US11091815B2, “Integrated methods for treating lignocellulosic material” (VIRDIA, LLC, priority 2015, dated 2021).
Where two headings read alike, the source gives them in different places.

Test: Partition coefficient in a two phase system of water and MEK
Type: physicochemical
Description: Water and methylethyl ketone (MEK) were shaken for several minutes to allow saturation of each phase. The phases were separated. An excess amount of fumaric acid was stirred at 40° C. in each phase for 5 hours in a closed container. A sample of the solution was diluted with water and filtered. The concentration of fumaric acid was determined by HPLC by injecting 1-20 μL onto a Bio-Rad Aminex HPX-87H 7.2 mm column, using 0.003 M H2SO4 as eluent, flow rate 0.6 mL/min, temperature 65° C., and an RI detector. The saturated solution was held in a thermostated bath at 25° C., 10° C., 4° C. and 0° C. and allowed to equilibrate at each temperature. A sample of each solution was taken, diluted with water and injected onto the HPLC to determine fumaric acid concentration. Similarly, excess amounts of fumaric acid and Ca(OH)2 were shaken with each phase and the concentration of fumaric acid determined by HPLC in a diluted, filtered sample.
An excess amount of fumaric acid was shaken overnight at 4° C. in a biphasic system of water and MEK. The fumaric acid concentration in each phase was determined by HPLC as described in Example 4. Similarly, excess amounts of both fumaric acid and calcium hydroxide were equilibrated with a biphasic system of water and MEK. The partition coefficient was calculated as:
[formula] K was determined to be 8.6 for fumaric acid and 0.5 for calcium fumarate.

| SMILES | partition coefficient K (biphasic system of water and MEK, excess solid shaken overnight at 4° C., concentration in each phase by HPLC, calcium fumarate: excess fumaric acid and calcium hydroxide) | partition coefficient K |
| --- | --- | --- |
| O=C([O-])/C=C/C(=O)[O-].[Ca+2] [calcium fumarate] | 0.5 |  |
| O=C(O)/C=C/C(=O)O [fumaric acid] |  | 8.6 |
